In patent publication US20100021895A1, “Vectors for Inducing Homozygous Mutations and Methods of Using Same” (priority 2006, published 2010):

Experiments:
[1] = system: mouse embryonic stem cell clones, each containing a neomycin resistance gene (Neo) inserted by the GTR1.3 gene trap retrovirus; assay: Carcinogen-induced LOH: frequency of colony formation in 2.0 mg/ml G418; type: cell-based; settings: for fold increase of frequency of colony formation: 2 mg/ml G418 0.25 mM HU
Procedure: Carcinogen-induced LOH was measured in a panel of 53 mouse embryonic stem cell clones, each containing a neomycin resistance gene (Neo) inserted into a different cellular gene (FIG. 9) by the GTR1.3 gene trap retrovirus. Gene entrapment by GTR1.3 involves selection for inserted Neo sequences that can splice to the 3′ ends of cellular genes (Lin et al.,). The disrupted genes were identified by sequencing Neo-gene fusion transcripts and were localized on the mouse genome. Previous studies have shown that cells homozygous for GTR1.3-induced mutations can be selected from heterozygous cells simply by selecting for resistance to higher concentrations of G418, a method first shown to select for homozygous mutations induced by gene targeting (15). Mitotic recombination appears to be the preferred mechanism of spontaneous LOH involving Neo genes inserted in ES cells (17) and LOH involving other genes and cell types in vivo (12, 13). LOH doubles the number of Neo genes per cell and thus allows moderately resistant cells to acquire resistance to higher concentrations of G418. The frequencies of spontaneous LOH measured at the 53 different sites ranged from 1.3×10^−5 to 1.2×10^−4 (Table 3), similar to those reported for other inserted neomycin resistance genes (15, 17) in ES cells and for loci such as TK and APRT in other cell types (12, 13).
A variety of chemical agents were tested for their ability to enhance the frequencies at which mutant cells survive in 2.0 mg/ml G418. Methyl-nitrosurea (MNU) is an alkylating agent that produces a variety of mono-methylated DNA adducts, hydroxyurea (HU) stalls DNA replication complexes, doxorubicin interferes with DNA synthesis, methothrexate is a competitive inhibitor of dihydrofolate reductase but is not genotoxic, diepoxybutane and mitomycin C induce inter-strand DNA crosslinks, UV irradiation causes intra- and inter-strand pyrimidine dimmers, and ethidium bromide intercalates between DNA strands to damage DNA (For additional information about these agents see http://toxnet.nlm.nih.gov and http://lisntweb.swan.ac.uk/cmgt/index.htm). […] The fold-increase for MNU and HU ranged from 39-123 and 18-68, respectively (Table 3). The optimal concentrations of each agent to stimulate colony formation with minimal toxicity (<5% loss of cell viability) were determined in advance (FIG. 13). […] Each of these agents was tested two or more times on at least 25 entrapment lines.
Serially diluted cells were plated onto 150 mm plates containing drug-free media and allowed to attach overnight. Unattached cells were removed and media containing the indicated concentrations of methyl-nitrosourea, hydroxyurea, ethidium bromide, doxorubicin, methotrexate, diepoxybutane, or mitomycin C was put onto cells for 4 hours (or cells were exposed to ultraviolet light in the absence of media and allowed to recover in drug-free media for 4 hours). Cells were then rinsed twice with drug-free media and selection media containing 0.0, 0.3, or 2.0 mg/ml G418 was put onto cells. After 12 days of selection, the number of colonies surviving was counted and the frequency of colony formation was determined by dividing the number of colonies obtained from 2.0 mg/ml G418 selection to that obtained from parallel experiments with 0.3 mg/ml G418 selection. TK gene loss was assessed following selection in media containing 2 μg/ml gancyclovir.
Table 3. The frequency of colony formation in high concentrations of G418. The frequency of colony formation is listed for all 53 clones examined. Frequency was determined by dividing the number of colonies surviving 2.0 mg/ml G418 selection to the number surviving parallel experiments with 0.3 mg/ml G418 selection, and is the average of at least 3 independent experiments for each clone. Standard deviations, which ranged from 5 to 70% of the mean values, have been omitted for clarity. […]

[2] = system: HSV thymidine kinase (TK) gene in cells containing an entrapment mutation in the Hesx1 gene; assay: TK gene loss, selection in gancyclovir; type: cell-based, mouse

What does the source list for `NC(=O)NO` [HU, hydroxyurea]?
fold-increase of colonies surviving in high G418, range over clones ([1]; 0.25 mM HU, Table 3 clones): 18-68 fold; number of colonies surviving in high G418 ([1]; 0.5 mM MNU or 0.25 mM HU (FIG. 10)): dramatically increased; fold increase of frequency of colony formation ([1]; clone b2p1-a5 (12C3)): (+35-fold); fold increase of frequency of colony formation ([1]; clone b2p1-a9 (2H1)): (+36-fold); fold increase of frequency of colony formation ([1]; clone b2p1-b4 (9E1)): (+32-fold); fold increase of frequency of colony formation ([1]; clone b2p1-b9 (4B1)): (+38-fold); fold increase of frequency of colony formation ([1]; clone b2p1-c6 (19A)): (+22-fold); fold increase of frequency of colony formation ([1]; clone b2p1-d3 (19C1)): (+28-fold); fold increase of frequency of colony formation ([1]; clone b2p1-d8 (4D2.3)): (+40-fold); fold increase of frequency of colony formation ([1]; clone b2p1-d9 (7E3)): (+38-fold); fold increase of frequency of colony formation ([1]; clone b2p1-d10 (9A1)): (+19-fold); fold increase of frequency of colony formation ([1]; clone b2p1-e3 (4D2.3)): (+32-fold); fold increase of frequency of colony formation ([1]; clone b2p1-e10 (19C1)): (+25-fold); fold increase of frequency of colony formation ([1]; clone b2p1-f3 (17E1.3)): (+47-fold); fold increase of frequency of colony formation ([1]; clone b2p1-f10 (3F2.1)): (+33-fold); fold increase of frequency of colony formation ([1]; clone b2p1-f12 (1H5)): (+25-fold); fold increase of frequency of colony formation ([1]; clone b2p1-h1 (7A2)): (+21-fold); fold increase of frequency of colony formation ([1]; clone b2p1-h5 (1H5)): (+42-fold); fold increase of frequency of colony formation ([1]; clone b2p1-h8 (6A3.3)): (+42-fold); fold increase of frequency of colony formation ([1]; clone b3p1-h1 (18E2)): (+42-fold); fold increase of frequency of colony formation ([1]; clone b3p3-a4 (4A5)): (+33-fold); fold increase of frequency of colony formation ([1]; clone b3p3-a9 (4A5)): (+18-fold); fold increase of frequency of colony formation ([1]; clone b3p3-b6 (3F1)): (+18-fold); fold increase of frequency of colony formation ([1]; clone b3p3-c8 (14A3)): (+32-fold); fold increase of frequency of colony formation ([1]; clone b3p3-c12 (5G2)): (+20-fold); fold increase of frequency of colony formation ([1]; clone b3p3-d4 (1C3)): (+28-fold); fold increase of frequency of colony formation ([1]; clone b3p3-d8 (1C2)): (+68-fold); fold increase of frequency of colony formation ([1]; clone b3p3-d9 (4E2)): (+22-fold); fold increase of frequency of colony formation ([1]; clone b3p3-g6 (10C2)): (+29-fold); fold increase of frequency of colony formation ([1]; clone b3p3-g10 (4E1)): (+24-fold); fold increase of frequency of colony formation ([1]; clone b3p3-h2 (19C1)): (+26-fold); fold increase of frequency of colony formation ([1]; clone b3p3-h4 (5E2)): (+50-fold); fold increase of frequency of colony formation ([1]; clone b3p3-h8 (19A)): (+37-fold); fold increase of frequency of colony formation ([1]; clone b3p4-a1 (4A4)): (+25-fold); fold increase of frequency of colony formation ([1]; clone b3p4-a5 (3B)): (+36-fold); fold increase of frequency of colony formation ([1]; clone b3p4-b1 (3A2)): (+44-fold); fold increase of frequency of colony formation ([1]; clone b3p4-b2 (11B1.3)): (+40-fold); fold increase of frequency of colony formation ([1]; clone b3p4-b8 (4C6)): (+27-fold); fold increase of frequency of colony formation ([1]; clone b3p4-b12 (3A1)): (+24-fold); fold increase of frequency of colony formation ([1]; clone b3p4-c1 (17B3)): (+50-fold); fold increase of frequency of colony formation ([1]; clone b3p4-c2 (8C3)): (+50-fold); fold increase of frequency of colony formation ([1]; clone b3p4-c9 (15F2)): (+20-fold); fold increase of frequency of colony formation ([1]; clone b3p4-c12 (17E2)): (+33-fold); fold increase of frequency of colony formation ([1]; clone b3p4-d10 (14E5)): (+54-fold); fold increase of frequency of colony formation ([1]; clone b3p4-d12 (1C3)): (+51-fold); fold increase of frequency of colony formation ([1]; clone b3p4-e1 (2G3)): (+32-fold); fold increase of frequency of colony formation ([1]; clone b3p4-e3 (15D3)): (+41-fold); fold increase of frequency of colony formation ([1]; clone b3p4-e7 (12C1)): (+44-fold); fold increase of frequency of colony formation ([1]; clone b3p4-f2 (4E1)): (+36-fold); fold increase of frequency of colony formation ([1]; clone b3p4-f6 (7E3)): (+26-fold); fold increase of frequency of colony formation ([1]; clone b3p4-f10 (8A4)): (+36-fold); fold increase of frequency of colony formation ([1]; clone b3p4-g3 (1C3)): (+34-fold); fold increase of frequency of colony formation ([1]; clone b3p4-g8 (10C1)): (+34-fold); fold increase of frequency of colony formation ([1]; clone b3p4-g9 (2C2)): (+32-fold); fold increase of frequency of colony formation ([1]; clone b3p4-h11 (8A1.1)): (+33-fold); survival of mutant ES cells in media containing 2.0 mg/ml G418 ([1]; ES cells heterozygous for Xrcc5 entrapment mutation, 4 hours with 0.5 mM methyl-nitrosourea, 0.25 mM hydroxyurea or 100 ng/ml diepoxybutane): enhances the survival; overall extent of LOH induced ([1]; single exposure to non-toxic levels): ~1 % of the genome; Ratio of Freq. TK loss ([2]; Table 2, C8TK1sN and C8TK1hN, Treatment none): 0.6; Freq. TK loss ([2]; Table 4, clone printed C8TK1hN (EL LOH induced by HU), Treatment HU): 4.9 × 10^−4; Freq. TK loss ([2]; Table 4, clone printed C8TK1hN (EL LOH induced by HU, TK+ EL−/−), Treatment none): 1.2 × 10^−5; Freq. TK loss ([2]; Table 4, clone printed C8TK1sN (Spont. EL LOH), Treatment HU): 2.8 × 10^−4; Ratio of Freq. TK loss ([2]; Table 4, printed C8TK1sN and C8TK1hN, Treatment HU): 1.8; Ratio of Freq. TK loss ([2]; Table 4, printed C8TK1sN and C8TK1hN, Treatment none): 2.3
